Reference: patent publication US6900194B1, “Use of substituted 4-biarylbutyric and 5-biarylpentanoic acid derivatives as matrix metalloprotease inhibitors for the treatment of respiratory diseases” (Bayer Aktiengesellschaft, priority 1998, dated 2005)
pIC50, pKi: −log10 of the molar value.

Legend:
[1] = biological target: T1, MMP-1 (Human Gingival Fibroblast Interstitial Collagenase) (Homo sapiens, UniProt P03956); experiment: P218 quenched fluorescence assay, MMP-1; assay type: biochemical; conditions: read-out: Potency Ki vs. MMP-1
T1 construct: Jack Windsor (supplied, not bought)
T1 sequence (P03956 100-469): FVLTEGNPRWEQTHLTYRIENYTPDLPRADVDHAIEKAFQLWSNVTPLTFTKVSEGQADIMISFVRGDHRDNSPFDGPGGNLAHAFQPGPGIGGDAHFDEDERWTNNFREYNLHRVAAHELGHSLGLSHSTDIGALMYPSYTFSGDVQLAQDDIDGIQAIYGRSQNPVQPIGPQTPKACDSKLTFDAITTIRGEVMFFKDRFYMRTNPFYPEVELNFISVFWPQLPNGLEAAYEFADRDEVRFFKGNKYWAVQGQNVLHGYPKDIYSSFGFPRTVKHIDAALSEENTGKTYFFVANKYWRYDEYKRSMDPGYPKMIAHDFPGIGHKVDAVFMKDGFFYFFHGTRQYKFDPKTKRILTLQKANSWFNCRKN
Source text: (§1) P218 Quenched Fluorescence Assay for MMP Inhibition:
(§2) This assay is adapted from the one described by Knight et al., FEBS Letters, 296, 263-266 (1992) for MMP-3 and a related substrate. The rate of hydrolysis of the synthetic substrate H-MCA-Pro-Lys-Pro-Leu-Ala-Leu-DPA-Ala-Arg-NH2 (P218) by the respective MMPs is monitored fluorometrically, using an excitation wavelength of 340 nm and an emission wavelength of 395 nm, in the presence or absence of the test compounds. The substrate is made up initially in 100% DMSO to a concentration of 1×10^−2 M, then diluted in assay buffer to a final concentration of 20 μM. […] The total assay volume in a 96 well microtitre plate is 150 μl, Cleavage of the substrate between the Leu-Ala residues allows the fluorescence of the MCA group to be detected on a fluorometer (Cytofluor II) following excitation at 340 nm and emission at 395 nm. Change in fluorescence is continually monitored for a 40 min period.
(§3) The Ki's are calculated using the method described by Williams and Morrison, Methods in Enzymology, 63, 437-467 (1979) to measure Ki apparent for tight binding inhibitors, and is summarised as follows: [I]0/(1−vi/v0)=Ki apparent ×vi/v0+[E]0 [I]0 and [E]0 are inhibitor and enzyme concentrations, and vi/v0 are reaction velocities with/without inhibitor. […]
(§4) IC50's are determined at each enzyme concentration using Xlfit software. […]

MMP-7 (Matrilysin) = biological target: T2, MMP-7 (Matrilysin) (Homo sapiens, UniProt P09237); experiment: P218 quenched fluorescence assay, MMP-7; assay type: biochemical
T2 construct: Catalytic domain expressed in E. coli using the pET 14 vector, provided by Dr Steve Shapiro; host or cells: E. coli
T2 sequence (P09237 95-267): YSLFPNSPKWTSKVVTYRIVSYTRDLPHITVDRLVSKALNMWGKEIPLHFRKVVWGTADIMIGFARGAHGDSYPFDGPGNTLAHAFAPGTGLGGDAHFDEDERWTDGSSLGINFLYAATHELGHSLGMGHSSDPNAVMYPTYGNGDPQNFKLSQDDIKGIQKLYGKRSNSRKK
Source text: as §1, §2, §3, §4

[2] = biological target: T3, MMP-12 (Macrophage Elastase) (Homo sapiens, UniProt P39900); experiment: P218 quenched fluorescence assay, MMP-12; assay type: biochemical; conditions: human; read-out: Potency Ki vs. MMP-12
T3 construct: made in house; host or cells: E. coli BL21 (DE3)
T3 sequence (P39900 106-470): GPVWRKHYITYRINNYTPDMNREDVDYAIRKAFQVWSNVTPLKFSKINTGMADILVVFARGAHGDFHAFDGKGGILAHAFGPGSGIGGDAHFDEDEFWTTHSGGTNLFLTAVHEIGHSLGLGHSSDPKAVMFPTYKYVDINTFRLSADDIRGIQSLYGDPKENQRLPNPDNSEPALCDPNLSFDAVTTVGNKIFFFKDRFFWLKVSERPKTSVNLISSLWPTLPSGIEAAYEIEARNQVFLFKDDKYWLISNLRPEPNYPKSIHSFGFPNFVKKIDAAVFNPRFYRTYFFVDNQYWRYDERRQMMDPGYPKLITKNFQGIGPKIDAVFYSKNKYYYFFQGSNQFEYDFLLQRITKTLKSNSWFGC
Source text: as §1
This assay is adapted from the one described by Knight et al., FEBS Letters, 296, 263-266 (1992) for MMP-3 and a related substrate. The rate of hydrolysis of the synthetic substrate H-MCA-Pro-Lys-Pro-Leu-Ala-Leu-DPA-Ala-Arg-NH2 (P218) by the respective MMPs is monitored fluorometrically, using an excitation wavelength of 340 nm and an emission wavelength of 395 nm, in the presence or absence of the test compounds. The substrate is made up initially in 100% DMSO to a concentration of 1×10^−2 M, then diluted in assay buffer to a final concentration of 20 μM. Test compounds (10 mM in DMSO) are diluted in assay buffer at an initial concentration of 0.3-1000 nM. These are diluted to a final concentration in the assay from 0.03 nM to 100 nM. The reaction is initiated by the addition of substrate at a final concentration of 20 μM. The total assay volume in a 96 well microtitre plate is 150 μl, Cleavage of the substrate between the Leu-Ala residues allows the fluorescence of the MCA group to be detected on a fluorometer (Cytofluor II) following excitation at 340 nm and emission at 395 nm. Change in fluorescence is continually monitored for a 40 min period.
The Ki's are calculated using the method described by Williams and Morrison, Methods in Enzymology, 63, 437-467 (1979) to measure Ki apparent for tight binding inhibitors, and is summarised as follows: [I]0/(1−vi/v0)=Ki apparent ×vi/v0+[E]0 [I]0 and [E]0 are inhibitor and enzyme concentrations, and vi/v0 are reaction velocities with/without inhibitor. [I]0 is equal to IC50 when vi is half v0, so that: IC50=0.5×[E]0+Ki apparent
IC50's are determined at each enzyme concentration using Xlfit software. Ki apparent is then determined graphically from the plot of IC50 versus MMP concentration, using the intercepts to estimate Ki apparent. Thus, intercept values at IC50=0 and [E]0=0 are equal to −2×Ki apparent and Ki apparent, respectively. IC50 values are calculated using % inhibition values at each enzyme concentration, ensuring data is taken from the linear part of the reaction rate curves. The Ki can then be calculated from the equation: Ki=Ki apparent/[…] where S=substrate concentration and Km=dissociation constant.
The assay conditions are modified as follows for each of the MMPs used:
MMP-12 (Macrophage Elastase)
[…] is isolated according to the following procedure: Human GenePool cDNA libraries from human lung, spleen, and brain were obtained from Invitrogen (Groningen, The Netherlands). HPLC-purified oligonucleotides were purchased from BioTez (Berlin, Germany), E. coli strain DH5α from Life Technologies (Heidelberg, Germany), strain BL21(DE3) from Novagen (Heidelberg, Germany). Pfu DNA-Polymerase and pBlueScriptII-KS(+) were from Stratagene (Heidelberg, Germany). DNA plasmid and DANN gel isolation kits were purchased from Qiagen (Hilden, Germany). All restriction enzymes and DNA modifying enzymes were ordered from New England Biolabs (Schwalbach, Germany). HiTrapQ (5 ml) was from Pharmacia Biotech (Freiburg, Germany). Vydac C4-RP HPLC columns (214TP54: 300 Å, 5 μm, 4.6×250 mm; 214TP1022: 300 Å, 10 μm, 22×250 mm) were from Promochem (Wesel, Germany). Fluorogenic substrate P218 was purchased from Polypeptide Laboratories (Wolfenbüttel, Germany). Ultrapure urea was purchased from Schwarz-Mann (Cleveland, Ohio). Ready-to-use NuPAGE 10% Bis-Tris Polyacrylamide SDS-PAGE gels and NuPAGE 20×MOPS running buffer were obtained from Novex (Frankfurt/Main, Germany) 10% AMPA and all other chemicals were from Sigma (Deisenhofen, Germany). […]

MMP-2 (Gelatinase A) = MMP-2 (Gelatinase A) (Homo sapiens, UniProt P08253); experiment: biochemical
MMP-2 (Gelatinase A), sequence (P08253 110-660): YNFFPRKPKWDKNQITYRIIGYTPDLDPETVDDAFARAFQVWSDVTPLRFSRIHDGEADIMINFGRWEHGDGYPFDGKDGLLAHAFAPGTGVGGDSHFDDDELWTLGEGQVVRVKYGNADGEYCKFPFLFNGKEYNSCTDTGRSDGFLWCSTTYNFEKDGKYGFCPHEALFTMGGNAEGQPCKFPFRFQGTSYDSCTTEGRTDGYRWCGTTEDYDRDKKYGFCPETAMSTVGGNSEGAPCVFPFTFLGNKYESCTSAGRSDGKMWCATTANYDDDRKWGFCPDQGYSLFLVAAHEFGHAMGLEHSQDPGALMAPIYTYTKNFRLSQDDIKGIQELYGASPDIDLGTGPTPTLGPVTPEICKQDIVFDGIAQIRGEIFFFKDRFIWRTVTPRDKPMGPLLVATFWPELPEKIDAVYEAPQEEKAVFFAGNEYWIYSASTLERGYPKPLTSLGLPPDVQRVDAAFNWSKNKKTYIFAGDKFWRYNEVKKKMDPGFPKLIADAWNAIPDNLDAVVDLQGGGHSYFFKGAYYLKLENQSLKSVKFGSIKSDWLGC

Structure (SMILES) | pKi [1] | inhibition at 0.03 µM (MMP-7 (Matrilysin); at 30 nM, read-out: % inh. of MMP-7) [%] | pKi [2] | pIC50 (MMP-2 (Gelatinase A)) | pKi (MMP-7 (Matrilysin); read-out: Potency Ki vs. MMP-7) | pKi (MMP-2 (Gelatinase A))
CCOc1ccc(-c2ccc(C(=O)CC(CCN3C(=O)c4ccccc4C3=O)C(=O)O)cc2)cc1 (single isomer, unassigned; (+)) [Example 2, (+)-2-[2-(1,3-Dioxo-1,3-dihydro-2H-isoindol-2-yl)ethyl]-4-(4′-ethoxy[1,1′-biphenyl]-4-yl)-4-oxobutanoic acid] | < 5.52 | 38 | 10.52 | 8.49 |  | 
O=C(CC(CCN1C(=O)c2ccccc2C1=O)C(=O)O)c1ccc(-c2ccc(Cl)cc2)cc1 (single isomer, unassigned; (+)) [Example 4, (+)-4-(4′-Chloro[1,1′-biphenyl]4-yl)-2-[2-(1,3-dioxo-1,3-dihydro-2H-isoindol-2-yl)ethyl]-4-oxobutanoic acid] | 6.19 |  | 9.52 |  | < 5.52 | 9.30
